The values below come from patent US20250114345A1, “COMPOUNDS AND COMPOSITIONS AS CBP/P300 DEGRADERS AND USES THEREOF” (Oncopia Therapeutics, Inc. d/b/a/ SK Life Science Labs, priority 2023, published 2025).

The test has as its target T1, p300 (Homo sapiens, UniProt Q09472).
T1 construct: host or cells: A549 P300 HiBit cells
In words: P300 degradation, HiBit technology in A549 P300 HiBit cells (2 h). It counts as cell-based. The conditions noted are these: 2 hrs post treatment; for Dmax: A549, A549 P300 HiBit cells; for DC50: A549 P300 HiBit cells. Summed up:
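HiBiT knock-in A549 cells received compound in serial dilution at 37 °C under 5% CO2. Remaining tagged protein was quantified by lytic HiBiT luminescence after 10 min shaking at room temperature, yielding potency and maximal degradation.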
On the technique in general: With HiBiT, luminescence reflects the tagged protein that the partner subunit can reach.

T1 sequence (Q09472 whole entry): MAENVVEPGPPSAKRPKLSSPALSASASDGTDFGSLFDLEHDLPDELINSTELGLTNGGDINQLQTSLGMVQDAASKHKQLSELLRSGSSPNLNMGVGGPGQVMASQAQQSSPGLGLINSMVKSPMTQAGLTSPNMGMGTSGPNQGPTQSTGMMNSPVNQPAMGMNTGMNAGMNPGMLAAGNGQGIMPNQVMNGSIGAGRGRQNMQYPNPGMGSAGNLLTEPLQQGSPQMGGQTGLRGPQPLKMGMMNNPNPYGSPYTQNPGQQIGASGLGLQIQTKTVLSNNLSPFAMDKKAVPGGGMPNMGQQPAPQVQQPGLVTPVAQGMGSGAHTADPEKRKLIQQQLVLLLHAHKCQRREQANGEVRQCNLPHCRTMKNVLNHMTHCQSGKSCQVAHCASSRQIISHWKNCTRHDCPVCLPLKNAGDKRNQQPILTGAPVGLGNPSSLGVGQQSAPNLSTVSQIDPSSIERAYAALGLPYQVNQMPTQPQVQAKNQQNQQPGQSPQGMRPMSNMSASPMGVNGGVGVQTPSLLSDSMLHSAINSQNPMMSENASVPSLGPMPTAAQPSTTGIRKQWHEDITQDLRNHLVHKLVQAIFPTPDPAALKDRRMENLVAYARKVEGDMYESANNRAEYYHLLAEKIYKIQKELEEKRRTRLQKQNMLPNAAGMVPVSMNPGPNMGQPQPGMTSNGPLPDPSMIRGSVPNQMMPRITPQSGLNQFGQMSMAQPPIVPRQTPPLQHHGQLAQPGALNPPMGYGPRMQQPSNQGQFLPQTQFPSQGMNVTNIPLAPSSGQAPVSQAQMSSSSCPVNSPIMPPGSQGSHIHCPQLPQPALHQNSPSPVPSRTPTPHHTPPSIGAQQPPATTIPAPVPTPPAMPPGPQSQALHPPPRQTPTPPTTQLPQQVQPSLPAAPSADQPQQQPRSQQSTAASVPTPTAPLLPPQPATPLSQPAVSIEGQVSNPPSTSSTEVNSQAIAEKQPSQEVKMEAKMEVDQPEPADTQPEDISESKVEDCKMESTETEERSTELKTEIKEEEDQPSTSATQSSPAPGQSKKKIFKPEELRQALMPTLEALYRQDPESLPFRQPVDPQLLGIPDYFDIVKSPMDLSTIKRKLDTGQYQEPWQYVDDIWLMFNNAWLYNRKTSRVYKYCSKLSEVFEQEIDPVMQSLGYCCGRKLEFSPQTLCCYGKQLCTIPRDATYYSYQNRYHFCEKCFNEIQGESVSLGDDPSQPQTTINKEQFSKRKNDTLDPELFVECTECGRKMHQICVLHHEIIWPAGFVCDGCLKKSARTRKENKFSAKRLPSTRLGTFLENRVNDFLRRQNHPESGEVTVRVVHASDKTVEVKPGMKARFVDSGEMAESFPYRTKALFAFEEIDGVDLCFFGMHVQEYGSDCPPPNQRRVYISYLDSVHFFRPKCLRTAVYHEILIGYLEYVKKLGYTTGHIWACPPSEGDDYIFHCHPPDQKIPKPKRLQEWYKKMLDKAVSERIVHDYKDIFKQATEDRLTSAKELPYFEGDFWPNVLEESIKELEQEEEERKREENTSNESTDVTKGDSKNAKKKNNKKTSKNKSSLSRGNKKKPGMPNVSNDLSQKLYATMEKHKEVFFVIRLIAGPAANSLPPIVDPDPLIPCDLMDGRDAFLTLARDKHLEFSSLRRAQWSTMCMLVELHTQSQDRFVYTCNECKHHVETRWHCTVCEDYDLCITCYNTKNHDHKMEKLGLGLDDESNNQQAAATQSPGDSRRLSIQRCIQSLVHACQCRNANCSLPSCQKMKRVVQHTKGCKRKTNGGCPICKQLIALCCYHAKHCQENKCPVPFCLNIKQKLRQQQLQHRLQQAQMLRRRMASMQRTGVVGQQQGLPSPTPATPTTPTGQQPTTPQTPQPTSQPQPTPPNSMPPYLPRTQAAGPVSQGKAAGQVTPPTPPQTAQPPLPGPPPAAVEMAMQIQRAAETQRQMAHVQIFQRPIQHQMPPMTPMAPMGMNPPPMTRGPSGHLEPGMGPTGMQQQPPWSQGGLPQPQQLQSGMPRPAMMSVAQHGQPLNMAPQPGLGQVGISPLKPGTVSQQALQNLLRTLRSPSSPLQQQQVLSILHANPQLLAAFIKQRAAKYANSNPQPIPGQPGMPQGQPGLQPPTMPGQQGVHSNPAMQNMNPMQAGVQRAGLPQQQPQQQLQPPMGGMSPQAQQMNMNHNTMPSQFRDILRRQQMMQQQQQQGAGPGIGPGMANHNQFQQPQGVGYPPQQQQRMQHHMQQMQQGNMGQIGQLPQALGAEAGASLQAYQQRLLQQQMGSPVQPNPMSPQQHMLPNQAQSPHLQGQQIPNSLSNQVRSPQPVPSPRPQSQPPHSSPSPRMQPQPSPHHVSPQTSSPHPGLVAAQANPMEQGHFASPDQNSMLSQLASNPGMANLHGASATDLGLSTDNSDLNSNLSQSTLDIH

For orientation: Dmax means the greatest extent of degradation seen. Broadly, the DC50 is the midpoint of the concentration-degradation curve. Low readings indicate degradation at low concentration, high ones degradation only at high concentration. As to `Cn1c(=O)n(C)c2c(N3CC4CCC(C3)O4)nc(-c3cccc4cc(-c5ccc(C(=O)NCC#Cc6cc7c(C8CCC(=O)NC8=O)cccc7o6)nc5)ncc34)cc21` (centres unmarked) [Example A253, 5-(8-(4-(8-oxa-3-azabicyclo[3.2.1]octan-3-yl)-1,3-dimethyl-2-oxo-2,3-dihydro-1H-imidazo[4,5-c]pyridin-6-yl)isoquinolin-3-yl)-N-(3-(4-(2,6-dioxopiperidin-3-yl)benzofuran-2-yl)prop-2-yn-1-yl)picolinamide], the Dmax was over 80% and the DC50 is under 1 nM.

`Cc1cc(-c2ncc(N(C)c3cc(C4CCOCC4)c4c(c3)n(C)c(=O)n4C)cn2)cnc1C(=O)NCC#Cc1cc2c(C3CCC(=O)NC3=O)cccc2o1` (centres unmarked) [Example A256, 5-(5-((1,3-dimethyl-2-oxo-7-(tetrahydro-2H-pyran-4-yl)-2,3-dihydro-1H-benzo[d]imidazol-5-yl)(methyl)amino)pyrimidin-2-yl)-N-(3-(4-(2,6-dioxo-piperidin-3-yl)benzo-furan-2-yl)prop-2-yn-1-yl)-3-methylpicolinamide] gave a Dmax of over 80% and a DC50 of 1 to 9.9 nM.

On to `Cc1cc(-c2cc(F)c(Nc3cc(C4CCOCC4)c4c(c3)n(C)c(=O)n4C)cc2C(F)F)cnc1C(=O)NCC#Cc1cc2c(C3CCC(=O)NC3=O)cccc2o1` (centres unmarked) [Example A257, 5-(2-(difluoromethyl)-4-((1,3-dimethyl-2-oxo-7-(tetrahydro-2H-pyran-4-yl)-2,3-dihydro-1H-benzo [d]imidazol-5-yl)amino)-5-fluoro-phenyl)-N-(3-(4-(2,6-dioxopiperidin-3-yl)benzofuran-2-yl)prop-2-yn-1-yl)-3-methylpicolinamide], for which the Dmax was in the range of 60 to 79% and the DC50 was in the range of 1 to 9.9 nM.

Consider `Cc1cc(-c2ncc3c(n2)OCCN3c2ccc3c(c2)n(C)c(=O)n3C)cnc1C(=O)NCC#Cc1ccc2occ(C34CC(C3)C(=O)NC4=O)c2c1` [Example A262, 5-(5-(1,3-dimethyl-2-oxo-2,3-dihydro-1H-benzo[d]imidazol-5-yl)-6,7-dihydro-5H-pyrimido[4,5-b] [1,4]oxazin-2-yl)-N-(3-(3-(2,4-dioxo-3-azabicyclo[3.1.1]heptan-1-yl)benzofuran-5-yl)prop-2-yn-1-yl)-3-methylpicolinamide], for which the Dmax is over 80% and the DC50 fell in the range of 10 to 99 nM.

On to `Cn1c(=O)n(C)c2cc(N3CC(C)(C)Oc4nc(-c5ccc(C(=O)NCC#Cc6cc7c(C8CCC(=O)NC8=O)cccc7o6)nc5)ncc43)ccc21` (centres unmarked) [Example A264, 5-(5-(1,3-dimethyl-2-oxo-2,3-dihydro-1H-benzo[d]imidazol-5-yl)-7,7-dimethyl-6,7-dihydro-5H-pyrimido [4,5-b][1,4]oxazin-2-yl)-N-(3-(4-(2,6-dioxopiperidin-3-yl)benzofuran-2-yl)prop-2-yn-1-yl)picolinamide], for which the Dmax was over 80% and the DC50 was in the range of 1 to 9.9 nM.

Consider `Cn1c(=O)n(C)c2c(F)cc(N3CCOc4nc(-c5ccc(C(=O)NCC#Cc6cc7c(C8CCC(=O)NC8=O)cccc7o6)nc5)ncc43)cc21` (centres unmarked) [Example A265, N-(3-(4-(2,6-dioxo-piperidin-3-yl)benzofuran-2-yl)prop-2-yn-1-yl)-5-(5-(7-fluoro-1,3-dimethyl-2-oxo-2,3-dihydro-1H-benzo[d]imidazol-5-yl)-6,7-dihydro-5H-pyrimido[4,5-b][1,4]oxazin-2-yl)picolinamide], for which the Dmax was in the range of 20 to 39% and the DC50 lay in the range of 10 to 99 nM.

For the compound `CCn1c(=O)n(C)c2ccc(-c3cccc4cc(-c5ccc(C(=O)NCC#Cc6cc7c(C8CCC(=O)NC8=O)cccc7o6)nc5)ncc34)cc21` (centres unmarked) [Example A267, N-(3-(4-(2,6-dioxo-piperidin-3-yl)benzofuran-2-yl)prop-2-yn-1-yl)-5-(8-(3-ethyl-1-methyl-2-oxo-2,3-dihydro-1H-benzo [d]imidazol-5-yl)isoquinolin-3-yl)picolinamide], the Dmax is over 80% and the DC50 fell in the range of 1 to 9.9 nM.

As for `Cn1c(=O)n(C)c2ncc(N3CCOc4nc(-c5ccc(C(=O)NCC#Cc6cc7c(C8CCC(=O)NC8=O)cccc7o6)nc5)ncc43)cc21` (centres unmarked) [Example A268, 5-(5-(1,3-dimethyl-2-oxo-2,3-dihydro-1H-imidazo[4,5-b]pyridin-6-yl)-6,7-dihydro-5H-pyrimido[4,5-b] [1,4]oxazin-2-yl)-N-(3-(4-(2,6-dioxopiperidin-3-yl)benzofuran-2-yl)prop-2-yn-1-yl)picolinamide], the Dmax fell in the range of 20 to 39% and the DC50 was 10 to 99 nM.

Take `CCc1cc(-c2cccc3cc(-c4ccc(C(=O)NCC#Cc5ccc6c(C)nn(C7CCC(=O)NC7=O)c6c5)nc4)ncc23)c2cc(C)c(=O)n(C)c2c1` (centres unmarked) [Example B1, N-(3-(1-(2,6-Dioxopiperidin-3-yl)-3-methyl-1H-indazol-6-yl)prop-2-yn-1-yl)-5-(8-(7-ethyl-1,3-dimethyl-2-oxo-1,2-dihydroquinolin-5-yl)isoquinolin-3-yl)picolinamide]: the Dmax fell in the range of 60 to 79% and the half-maximal degradation concentration (DC50) lay in the range of 10 to 99 nM.

For `CCc1cc(-c2cccc3cc(-c4ccc(C(=O)NCC#Cc5cc6c(cnn6C6CCC(=O)NC6=O)cc5C)nc4)ncc23)c2cc(C)c(=O)n(C)c2c1` (centres unmarked) [Example B3, N-(3-(1-(2,6-Dioxopiperidin-3-yl)-5-methyl-1H-indazol-6-yl)prop-2-yn-1-yl)-5-(8-(7-ethyl-1,3-dimethyl-2-oxo-1,2-dihydroquinolin-5-yl)isoquinolin-3-yl)picolinamide], the Dmax fell in the range of 20 to 39% and the DC50 was in the range of 10 to 99 nM.

Compound `CCc1cc(-c2cccc3cc(-c4ccc(C(=O)NCC#Cc5cc(C)c6cnn(C7CCC(=O)NC7=O)c6c5)nc4)ncc23)c2cc(C)c(=O)n(C)c2c1` (centres unmarked) [Example B6, N-(3-(1-(2,6-Dioxopiperidin-3-yl)-4-methyl-1H-indazol-6-yl)prop-2-yn-1-yl)-5-(8-(7-ethyl-1,3-dimethyl-2-oxo-1,2-dihydroquinolin-5-yl)isoquinolin-3-yl)picolinamide] displayed a Dmax of 60 to 79% and a DC50 of 10 to 99 nM.

In the case of `CCc1cc(S(=O)(=O)c2ccc(-c3cnc(C(=O)NCC#Cc4cccc(NC5CCC(=O)NC5=O)c4)c(C)c3)nc2)c2cc(C)c(=O)n(C)c2c1` (centres unmarked) [Example B10, N-(3-(3-((2,6-Dioxopiperidin-3-yl)amino)phenyl)prop-2-yn-1-yl)-5-((7-ethyl-1,3-dimethyl-2-oxo-1,2-dihydroquinolin-5-yl)sulfonyl)-5′-methyl-[2,3′-bipyridine]-6′-carboxamide], the Dmax was under 20% and the DC50 is over 1000 nM.

Compound `CCc1cc(N(C)c2ccc(-c3cnc(C(=O)NCC#Cc4cccc(NC5CCC(=O)NC5=O)c4)c(C)c3)c(Cl)c2)c2cc(C)c(=O)n(C)c2c1` (centres unmarked) [Example B11, 5-(2-Chloro-4-((7-ethyl-1,3-dimethyl-2-oxo-1,2-dihydroquinolin-5-yl)(methyl)amino)phenyl)-N-(3-(3-((2,6-dioxopiperidin-3-yl)amino)phenyl)prop-2-yn-1-yl)-3-methylpicolinamide] yielded a Dmax of over 80% and a DC50 of 10 to 99 nM.

`CCc1cc(-c2cccc3cc(-c4ccc(C(=O)NCC#Cc5ccc6c(c5)ncn6C5CCC(=O)NC5=O)nc4)ncc23)c2cc(C)c(=O)n(C)c2c1` (centres unmarked) [Example B12, N-(3-(1-(2,6-Dioxopiperidin-3-yl)-1H-benzo[d]imidazol-5-yl)prop-2-yn-1-yl)-5-(8-(7-ethyl-1,3-dimethyl-2-oxo-1,2-dihydroquinolin-5-yl)isoquinolin-3-yl)picolinamide]: the Dmax is under 20% and the DC50 was over 1000 nM.

`CCc1cc(-c2cccc3cc(-c4ccc(C(=O)NCC#Cc5ccc6cnn(C7CCC(=O)NC7=O)c6c5)nc4)ncc23)c2c(n1)N(C)C(=O)N(C)C2` (centres unmarked) [Example B13, N-(3-(1-(2,6-Dioxopiperidin-3-yl)-1H-indazol-6-yl)prop-2-yn-1-yl)-5-(8-(7-ethyl-1,3-dimethyl-2-oxo-1,2,3,4-tetrahydropyrido[2,3-d]pyrimidin-5-yl)isoquinolin-3-yl)picolinamide]: the Dmax is over 80% and the DC50 lay in the range of 1 to 9.9 nM.

`CCc1cc(N(C)c2ccc(-c3cnc(C(=O)NCC#Cc4cccc(NC5CCC(=O)NC5=O)c4)c(C)c3)c(C(F)(F)F)c2)c2cc(C)c(=O)n(C)c2c1` (centres unmarked) [Example B14, N-(3-(3-((2,6-Dioxopiperidin-3-yl)amino)phenyl)prop-2-yn-1-yl)-5-(4-((7-ethyl-1,3-dimethyl-2-oxo-1,2-dihydroquinolin-5-yl)(methyl)amino)-2-(trifluoromethyl)phenyl)-3-methylpicolinamide] gave a Dmax of 60 to 79% and a DC50 of 10 to 99 nM.

In turn, `CCc1cc(N(C)c2ccc(-c3cnc(C(=O)NCC#Cc4cccc(NC5CCC(=O)NC5=O)c4)c(C)c3)c(C)c2)c2cc(C)c(=O)n(C)c2c1` (centres unmarked) [Example B15, N-(3-(3-((2,6-Dioxopiperidin-3-yl)amino)phenyl)prop-2-yn-1-yl)-5-(4-((7-ethyl-1,3-dimethyl-2-oxo-1,2-dihydroquinolin-5-yl)(methyl)amino)-2-methylphenyl)-3-methylpicolinamide] returned a Dmax of over 80% and a DC50 of 10 to 99 nM.

Compound `CCc1cc(Oc2ccc(-c3cnc(C(=O)NCC#Cc4cccc(NC5CCC(=O)NC5=O)c4)c(C)c3)nc2)c2cc(C)c(=O)n(C)c2c1` (centres unmarked) [Example B17, N-(3-(3-((2,6-Dioxopiperidin-3-yl)amino)phenyl)prop-2-yn-1-yl)-5-((7-ethyl-1,3-dimethyl-2-oxo-1,2-dihydroquinolin-5-yl)oxy)-5′-methyl-[2,3′-bipyridine]-6′-carboxamide] registered a Dmax of under 20% and a DC50 of over 1000 nM.

Compound `CCc1cc(N(C)c2ccc(-c3cnc(C(=O)NCC#Cc4cccc(NC5CCC(=O)NC5=O)c4)c(C)c3)cc2)c2cc(C)c(=O)n(C)c2c1` (centres unmarked) [Example B18, N-(3-(3-((2,6-Dioxopiperidin-3-yl)amino)phenyl)prop-2-yn-1-yl)-5-(4-((7-ethyl-1,3-dimethyl-2-oxo-1,2-dihydroquinolin-5-yl)(methyl)amino)phenyl)-3-methylpicolinamide] had a Dmax of over 80% and a DC50 of 10 to 99 nM.
